This is an account of results in US8569469B2, “B12-dependent dehydratases with improved reaction kinetics” (priority 2002, dated 2013).

What all share (type): biochemical
The target of experiment [1] is Klebsiella pneumoniae ATCC 25955 B12-dependent glycerol dehydratase (GDH), wild type, SEQ ID NO: 1 (α, β, γ subunits SEQ ID NO: 2, 3, 4) (Klebsiella pneumoniae, UniProt O08505+Q59476). Put plainly: Time course of GDH reaction with glycerol, with and without 1,3-propanediol (permeabilized cells, FIG. 1). The arrangement: permeabilized cells (A1) or purified (A2-A4). The procedure:
FIG. 1 illustrates the typical time course associated with GDH inactivation. These enzyme activity assays were conducted using the GDH encoded by dhaB1, dhaB2, and dhaB3 (SEQ ID NO:1 and SEQ ID NO: 2, 3, and 4, respectively) of K. pneumoniae (WO 01/012833A2).
Cells were permeabilized as follows: aliquots of culture (0.3 mL) were dispensed into the square wells of a polypropylene deep-well plate (Beckman-Coulter, Fullerton, Calif.) and 10 μL of toluene containing 2.5% (v/v) Triton X-100 detergent was added to each well. Plates were then shaken for 10 min at top speed on an IKA MTS4 shaker (IKA-Werke Gmbh., Staufen, Germany). Working under red light to protect the coenzyme B12, reactions were started by adding 5 volumes of substrate solution to 1 volume of permeabilized cell suspension. The substrate solution contained 12 mM glycerol and 24 μM coenzyme B12 in 0.1 M K-Hepes, pH 8. At timed intervals, 12.5 μl aliquots of the reaction were added to the wells of a 96-well plate which contained 12.5 μl of 3 mg/mL MBTH in 0.4 M glycine-HCl, pH 2.7. At least 20 min after sampling, 125 μL of 5.5 mM FeCl3 in 10 mM HCl was added to each of the MBTH-containing samples. After a further 20 min or longer, the blue color associated with GDH activity was quantitated as absorbance at 670 nm using a Spectramax 160 plate reader (Molecular Devices, Sunnyvale, Calif.). A similar experiment was conducted in which the substrate solution was supplemented with 50 mM 1,3-propanediol.
The rate of product formation decreases rapidly with time as inactivation occurs. A theoretical curve was drawn through the points by fitting three parameters to the following equation y=T0+amp(1−exp(−kinact obsd*time)). […] The fitting parameters are related to the kinetic properties of the reaction as follows: the amplitude is equal to the initial rate of the reaction (v) divided by the observed enzyme inactivation rate (kinact obsd). The initial rate is [GDH][gly]kcat/(Km+[gly]). […]

Experiment [2] deals with Klebsiella pneumoniae GDH variant Xba3009 (α-Thr77Ala, α-Cys193Ser, stop of α to Glu (α-β fusion), β-Lys56Arg, β-Ala88 silent, β-Asp111Glu, γ-His67Tyr, γ-Thr114 (Klebsiella pneumoniae, UniProt O08505+Q59476, C193S/D111E, form not given/K56R/T77A)). As to conditions: Xba3009 (Type 4).
Experiment [3] deals with Klebsiella pneumoniae GDH variant Sma3002 (α-Tyr271Cys, α-Tyr502His, stop of α to Gln (α-β fusion), β-Gln2Arg, β-Phe11 silent), SEQ ID NO: 140 (amino acid 141, (Klebsiella pneumoniae, UniProt O08505+Q59476, form not given/Y271C/Y502H)). The following applies: Sma3002 (Type 2).
For experiment [4], the target named is Klebsiella pneumoniae GDH variant Xba3007 (γ-Thr53Ala), SEQ ID NO: 40 (amino acid 41, 42, 43) (Klebsiella pneumoniae, UniProt O08505+Q59476). The following applies: Xba3007 (Type 1).

Molecules are shown by their SMILES.

Consider `OCCCO` [1,3-propanediol], for which, in experiment [1], the Ki (usually a measure of affinity in units of concentration, obtained from inhibition or displacement) is roughly 15 mM. Further, the “inactivation, times faster with 1,3-propanediol” value in experiment [1] (50 mM 1,3-propanediol, 10 mM glycerol, vs without 1,3-propanediol) is roughly 3 times. The inhibition at 50000 µM in experiment [1] (pH 8, read-out: reduction of initial rate of the reaction) was roughly 20%.
Take `OCC(O)CO` [glycerol]: the values for the kcat in experiment [2], in experiment [3] and in experiment [4] were 65,373 min^−1, 9,830 min^−1 and 16,220 min^−1, respectively. For the same compound, the Km (as a rule, the concentration of substrate that gives half-maximal velocity) in experiment [3] worked out at 2940 µM.
